Data published in patent US9850283B2, “Macrocyclic inhibitors of the PD-1/PD-L1 and CD80(B7-1)/PD-L1 protein/protein interactions” (BRISTOL-MYERS SQUIBB COMPANY, priority 2013, dated 2017).
Where two headings read alike, the source gives them in different places. Positions of bridges follow the written chain, without caps; N, C: chain ends. Non-standard residues stand in square brackets, D forms with d. Residues, ends and D or L forms follow the SMILES beside them. ξ: configuration not given here. Trp(1-CH2COOH) = N[C@@H](Cc1cn(CC(=O)O)c2ccccc12)C(=O)O; Phe(3,4-Me2) = Cc1ccc(C[C@H](N)C(=O)O)cc1C; Ala(2-furyl) = N[C@@H](Cc1ccco1)C(=O)O; Bta = N[C@@H](Cc1csc2ccccc12)C(=O)O; ξPro(4R-OH) = O=C(O)C1C[C@@H](O)CN1; cisHyp = O=C(O)[C@@H]1C[C@H](O)CN1; Hyp = O=C(O)[C@@H]1C[C@@H](O)CN1; NMeF = CN[C@@H](Cc1ccccc1)C(=O)O; Cha = N[C@@H](CC1CCCCC1)C(=O)O; dNMeNle = CCCC[C@@H](NC)C(=O)O; AllylGly = C=CC[C@H](N)C(=O)O; NMeNle = CCCC[C@H](NC)C(=O)O; NMeM = CN[C@@H](CCSC)C(=O)O; Pip = O=C(O)[C@@H]1CCCCN1; NMeA = CN[C@@H](C)C(=O)O; Dab = NCC[C@H](N)C(=O)O; Dap = NC[C@H](N)C(=O)O; ξC = NC(CS)C(=O)O; Sar = CNCC(=O)O

Experiments:
Human PD-L1/PD-1 = target: T1, Human PD-L1/PD-1 (Homo sapiens, UniProt Q9NZQ7); test: HTRF PD-1-Ig/PD-L1-His binding assay (human PD-L1); conditions: cluster symbol; read-out: HTRF IC50 cluster
T1 construct: made in house; host or cells: HEK293T
Outline: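 HTRF read-out: Eu cryptate anti-Ig mAb 1 nM final, APC anti-His mAb 20 nM final, added over the binding reaction. Proteins were PD-1-Ig and PD-L1-His ectodomain fusions. Buffer was dPBS, 0.1% BSA, 0.05% Tween-20.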

[1] = target: T2, LK35.2-hPD-L1 cells / PE-labeled PD-1-Ig (Homo sapiens, UniProt Q9NZQ7); test: LK35.2-hPD-L1 cell binding high-content screening assay; format: cell-based; conditions: cluster symbol, read-out: CBA IC50 cluster
T2 construct: expressed in transfected cells; host or cells: LK35.2 mouse B cell line
Outline: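 Binding of PE-conjugated human PD-1-Ig (1 nM final) to human PD-L1 stably expressed on a mouse B-cell line (LK35.2) was measured by high-content imaging after washes. Compound and labeled PD-1-Ig were co-incubated 1 h at 37 °C with cells in RPMI/10% FCS.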

[2] = cell binding assay, cell line not given
[3] = cell line of CBA not given (LK35.2-hPD-L1 or 293T-hPD-L1)

T1 sequence (Q9NZQ7 with tags, fused parts or gaps): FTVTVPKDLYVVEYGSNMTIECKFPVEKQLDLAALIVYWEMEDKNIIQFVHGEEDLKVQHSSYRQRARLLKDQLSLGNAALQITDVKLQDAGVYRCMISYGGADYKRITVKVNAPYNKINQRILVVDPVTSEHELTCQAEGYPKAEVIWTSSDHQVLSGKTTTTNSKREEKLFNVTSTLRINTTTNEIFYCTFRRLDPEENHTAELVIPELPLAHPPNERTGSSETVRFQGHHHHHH
T2 sequence (Q9NZQ7 19-290): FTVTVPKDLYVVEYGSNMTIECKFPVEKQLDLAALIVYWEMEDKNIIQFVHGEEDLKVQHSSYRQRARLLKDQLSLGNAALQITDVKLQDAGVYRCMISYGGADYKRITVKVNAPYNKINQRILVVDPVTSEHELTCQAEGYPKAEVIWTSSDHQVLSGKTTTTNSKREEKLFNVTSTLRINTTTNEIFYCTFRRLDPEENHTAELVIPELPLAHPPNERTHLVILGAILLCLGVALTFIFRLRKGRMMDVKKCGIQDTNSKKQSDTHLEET

Compound | IC50 (Human PD-L1/PD-1) | IC50 [1, 2] | IC50 [1, 3]
CCCC[C@H]1C(=O)N(C)[C@@H](CCSC)C(=O)N[C@@H](CCCNC(=N)N)C(=O)NC(C(=O)NCC(N)=O)CSCC(=O)N[C@@H](Cc2ccc(O)cc2)C(=O)N(C)[C@@H](C)C(=O)N[C@@H](CC(N)=O)C(=O)N2CCC[C@H]2C(=O)N[C@@H](CN)C(=O)N[C@@H](CC(C)C)C(=O)N2CCC[C@H]2C(=O)N[C@@H](Cc2c[nH]c3ccccc23)C(=O)N[C@@H](CO)C(=O)N[C@@H](Cc2csc3ccccc23)C(=O)N1C (stereo partly shown) [Example 9082] ({CH2CO}-Y[NMeA]NP[Dap]LPWS[Bta][NMeNle][NMeM]R[ξC]G-NH2; thioether N-14) | 0.385 to 6.74 nM | 0.158 to 4.71 nM | 
CCCC[C@H]1C(=O)N(C)[C@@H](CCCC)C(=O)N[C@@H](CCCNC(=N)N)C(=O)N[C@H](C(=O)NCC(N)=O)CSCC(=O)N[C@@H](Cc2ccccc2)C(=O)N(C)[C@@H](C)C(=O)N[C@@H](CC(N)=O)C(=O)N2CCC[C@H]2C(=O)N[C@@H](Cc2cnc[nH]2)C(=O)N[C@@H](CC(C)C)C(=O)N2CCC[C@H]2C(=O)N[C@@H](Cc2c[nH]c3ccccc23)C(=O)N[C@@H](CO)C(=O)N[C@@H](Cc2csc3ccccc23)C(=O)N1C [Example 1015] ({CH2CO}-F[NMeA]NPHLPWS[Bta][NMeNle][NMeNle]RCG-NH2; thioether N-14) | 6.76 to 30.3 nM |  | 4.78 to 72.9 nM
CCCC[C@H]1C(=O)N(C)[C@@H](CCSC)C(=O)N[C@@H](CCCNC(=N)N)C(=O)NC(C(=O)NCC(N)=O)CSCC(=O)N[C@@H](Cc2ccc(O)cc2)C(=O)N(C)[C@@H](C)C(=O)N[C@@H](CC(N)=O)C(=O)N2CCC[C@H]2C(=O)N[C@@H](Cc2cnc[nH]2)C(=O)N[C@@H](CC(C)C)C(=O)N2C[C@H](O)C[C@H]2C(=O)N[C@@H](Cc2c[nH]c3ccccc23)C(=O)N[C@@H](CO)C(=O)N[C@@H](Cc2c[nH]c3ccccc23)C(=O)N1C (stereo partly shown) [Example 9024] | 0.385 to 6.74 nM | 0.158 to 4.71 nM | 
CCCC[C@H]1C(=O)N(C)[C@@H](CCCC)C(=O)N[C@@H](CCCNC(=N)N)C(=O)N[C@H](C(=O)NCC(N)=O)CSCC(=O)N[C@@H](Cc2ccccc2)C(=O)N(C)[C@@H](C)C(=O)N[C@@H](CC(N)=O)C(=O)N2CCC[C@H]2C(=O)N[C@@H](Cc2cnc[nH]2)C(=O)N[C@@H](CC(C)C)C(=O)N2CCCC[C@H]2C(=O)N[C@@H](Cc2c[nH]c3ccccc23)C(=O)N[C@@H](CO)C(=O)N[C@@H](Cc2c[nH]c3ccccc23)C(=O)N1C [Example 1196] ({CH2CO}-F[NMeA]NPHL[Pip]WSW[NMeNle][NMeNle]RCG-NH2; thioether N-14) | > 30.5 nM |  | 4.78 to 72.9 nM
CCCC[C@H]1C(=O)N(C)[C@@H](CCCC)C(=O)N[C@@H](CCCNC(=N)N)C(=O)N[C@H](C(=O)NCC(N)=O)CSCC(=O)N[C@@H](Cc2ccc(C)c(C)c2)C(=O)N(C)[C@@H](C)C(=O)N[C@@H](CC(N)=O)C(=O)N2CCC[C@H]2C(=O)N[C@@H](Cc2cnc[nH]2)C(=O)N[C@@H](CC(C)C)C(=O)N2CCC[C@H]2C(=O)N[C@@H](Cc2c[nH]c3ccccc23)C(=O)N[C@@H](CO)C(=O)N[C@@H](Cc2c[nH]c3ccccc23)C(=O)N1C [Example 7015] ({CH2CO}-[Phe(3,4-Me2)][NMeA]NPHLPWSW[NMeNle][NMeNle]RCG-NH2; thioether N-14) | 6.76 to 30.3 nM | 4.78 to 72.9 nM | 
CCCC[C@H]1C(=O)N(C)[C@@H](CCCC)C(=O)N[C@@H](CCCN)C(=O)N[C@H](C(=O)NCC(N)=O)CSCC(=O)N[C@@H](Cc2ccc(O)cc2)C(=O)N2C[C@@H](N)C[C@H]2C(=O)N[C@@H](CC(N)=O)C(=O)N2CCC[C@H]2C(=O)N[C@@H](Cc2cnc[nH]2)C(=O)N[C@@H](CC(C)C)C(=O)N2C[C@H](O)C[C@H]2C(=O)N[C@@H](Cc2c[nH]c3ccccc23)C(=O)N[C@@H](CO)C(=O)N[C@@H](Cc2c[nH]c3ccccc23)C(=O)N1C [Example 1188] | 6.76 to 30.3 nM |  | 4.78 to 72.9 nM
C=CC[C@@H]1NC(=O)[C@H](Cc2c[nH]c3ccccc23)NC(=O)[C@@H]2CCCN2C(=O)[C@H](CC(C)C)NC(=O)[C@H](CN)NC(=O)[C@@H]2CCCN2C(=O)[C@H](CC(N)=O)NC(=O)[C@H](C)N(C)C(=O)[C@H](Cc2ccc(O)cc2)NC(=O)CSC[C@@H](C(=O)NCC(N)=O)NC(=O)[C@H](CC=C)NC(=O)[C@H](CCCC)N(C)C(=O)[C@H](CCCC)N(C)C(=O)[C@H](Cc2c[nH]c3ccccc23)NC1=O [Example 7022] ({CH2CO}-Y[NMeA]NP[Dap]LPW[AllylGly]W[NMeNle][NMeNle][AllylGly]CG-NH2; thioether N-14) | 6.76 to 30.3 nM | 4.78 to 72.9 nM | 
CCCC[C@H]1C(=O)N(C)[C@@H](CCCC)C(=O)N[C@@H](CCCNC(=N)N)C(=O)NC(C(=O)N[C@@H](CO)C(N)=O)CSCC(=O)N[C@@H](Cc2ccc(O)cc2)C(=O)N(C)[C@@H](C)C(=O)N[C@@H](CC(N)=O)C(=O)N2CCC[C@H]2C(=O)N[C@@H](CO)C(=O)N[C@@H](CC(C)C)C(=O)N2C[C@H](O)C[C@H]2C(=O)N[C@@H](Cc2c[nH]c3ccccc23)C(=O)N[C@@H](CO)C(=O)N[C@@H](Cc2csc3ccccc23)C(=O)N1C (stereo partly shown) [Example 9075] ({CH2CO}-Y[NMeA]NPSL[Hyp]WS[Bta][NMeNle][NMeNle]R[ξC]S-NH2; thioether N-14) | 0.385 to 6.74 nM | 0.158 to 4.71 nM | 
CCCC[C@H]1C(=O)N(C)[C@@H](CCCC)C(=O)N[C@@H](CC2CCCCC2)C(=O)N[C@H](C(=O)NCC(N)=O)CSCC(=O)N[C@@H](Cc2ccc(O)cc2)C(=O)N(C)[C@@H](C)C(=O)N[C@@H](CC(N)=O)C(=O)N2CCC[C@H]2C(=O)N[C@@H](Cc2c[nH]cn2)C(=O)N[C@@H](CCC(N)=O)C(=O)N2C[C@H](O)C[C@H]2C(=O)N[C@@H](Cc2c[nH]c3ccccc23)C(=O)N[C@@H](CO)C(=O)N[C@@H](Cc2c[nH]c3ccccc23)C(=O)N1C [Example 5077] ({CH2CO}-Y[NMeA]NPHQ[Hyp]WSW[NMeNle][NMeNle][Cha]CG-NH2; thioether N-14) | 6.76 to 30.3 nM | 0.158 to 4.71 nM | 
CCCC[C@H]1C(=O)N(C)CC(=O)N[C@@H](CC(=O)O)C(=O)N[C@@H](C(C)C)C(=O)N(C)[C@@H](Cc2ccccc2)C(=O)N[C@@H](Cc2ccc(O)cc2)C(=O)N(C)CC(=O)N[C@@H](Cc2c[nH]c3ccccc23)C(=O)N[C@@H](Cc2ccc(O)cc2)C(=O)N[C@@H](CC(C)C)C(=O)N[C@H](C(=O)NCC(N)=O)CSCC(=O)N[C@@H](Cc2ccco2)C(=O)N(C)[C@@H](Cc2ccccc2)C(=O)N1C [Example 3101] ({CH2CO}-[Ala(2-furyl)][NMeF][NMeNle][Sar]DV[NMeF]Y[Sar]WYLCG-NH2; thioether N-13) | > 30.5 nM |  | > 74.3 nM
CCCC[C@H]1C(=O)N(C)CC(=O)N[C@@H](CC(=O)O)C(=O)N[C@@H](C(C)C)C(=O)N(C)[C@@H](Cc2ccccc2)C(=O)N[C@@H](Cc2ccc(O)cc2)C(=O)N(C)CC(=O)N[C@@H](Cc2c[nH]c3ccccc23)C(=O)N[C@@H](Cc2ccc(O)cc2)C(=O)N[C@@H](CC(C)C)C(=O)N[C@H](C(=O)NCC(N)=O)CSCC(=O)N[C@@H](Cc2ccccc2)C(=O)N(C)[C@@H](Cc2cnc[nH]2)C(=O)N1C [Example 3056-A] (HELM PEPTIDE1{[O=C(C[*:3])[*:2]].F.[meH].[CCCC[C@@H](C(=O)[*:2])N(C)[*:1]].[Sar].D.V.[meF].Y.[Sar].W.Y.L.C.G.[am]}$PEPTIDE1,PEPTIDE1,1:R3-14:R3$$$V2.0) | > 30.5 nM |  | > 74.3 nM
CCCC[C@H]1C(=O)N(C)CC(=O)N[C@@H](CC(=O)O)C(=O)N[C@@H](C(C)C)C(=O)N(C)[C@@H](Cc2ccccc2)C(=O)N[C@@H](CC(C)C)C(=O)N(C)CC(=O)N[C@@H](Cc2c[nH]c3ccccc23)C(=O)N[C@@H](Cc2ccc(O)cc2)C(=O)N[C@@H](CC(C)C)C(=O)N[C@H](C(=O)NCC(N)=O)CSCC(=O)N[C@@H](Cc2ccccc2)C(=O)N(C)[C@@H](Cc2ccccc2)C(=O)N1C [Example 3505] (HELM PEPTIDE1{[O=C(C[*:3])[*:2]].F.[meF].[CCCC[C@@H](C(=O)[*:2])N(C)[*:1]].[Sar].D.V.[meF].L.[Sar].W.Y.L.C.G.[am]}$PEPTIDE1,PEPTIDE1,1:R3-14:R3$$$V2.0) | 6.76 to 30.3 nM | 4.78 to 72.9 nM | 
CCCC[C@H]1C(=O)N(C)[C@@H](CCCC)C(=O)N[C@@H](CC(=O)O)C(=O)N[C@H](C(=O)NCC(N)=O)CSCC(=O)N[C@@H](Cc2ccc(O)cc2)C(=O)N(C)[C@@H](C)C(=O)N[C@@H](CC(=O)O)C(=O)N2CCC[C@H]2C(=O)N[C@@H](Cc2c[nH]cn2)C(=O)N[C@@H](CCCNC(=N)N)C(=O)N2C[C@H](O)CC2C(=O)N[C@@H](Cc2c[nH]c3ccccc23)C(=O)N[C@@H](CCCNC(=N)N)C(=O)N[C@@H](Cc2c[nH]c3ccccc23)C(=O)N1C (stereo partly drawn) [Example 1203] ({CH2CO}-Y[NMeA]DPHR[ξPro(4R-OH)]WRW[NMeNle][NMeNle]DCG-NH2; thioether N-14) | 6.76 to 30.3 nM |  | 0.158 to 4.71 nM
CCCC[C@@H]1C(=O)N[C@@H](CC(C)C)C(=O)N[C@H](C(=O)NCC(N)=O)CSCC(=O)N[C@@H](Cc2ccc(O)cc2)C(=O)N(C)[C@@H](C)C(=O)N[C@@H](CC(N)=O)C(=O)N2CCC[C@H]2C(=O)N[C@@H](CN)C(=O)N[C@@H](CC(C)C)C(=O)N2C[C@@H](O)C[C@H]2C(=O)N[C@@H](Cc2c[nH]c3ccccc23)C(=O)N[C@@H](CCN)C(=O)N[C@@H](Cc2cn(CC(=O)O)c3ccccc23)C(=O)N(C)[C@@H](CCCC)C(=O)N1C [Example 6046] ({CH2CO}-Y[NMeA]NP[Dap]L[cisHyp]W[Dab][Trp(1-CH2COOH)][NMeNle][dNMeNle]LCG-NH2; thioether N-14) | 0.385 to 6.74 nM | 0.158 to 4.71 nM | 
